The source of these data is patent US7173040B2, “Farnesyl transferase inhibiting 6-[(substituted phenyl)methyl]-quinoline and quinazoline derinazoline derivatives” (Janssen Pharmaceutica N.V., priority 2000, dated 2007).

As a reminder, the melting point is the temperature, or range, at which the solid turns liquid. For the compound `Cn1cnnc1C(N)(c1ccc(I)cc1)c1ccc2c(c1)c(-c1cccc(Cl)c1)nc1nnnn12` (stereo not drawn) [Example B29c, 5-(3-chlorophenyl)-α-(4-iodophenyl)-α-(4-methyl-4H-1,2,4-triazol-3-yl)-tetrazolo[1,5-a]quinazoline-7-methanamine], the melting point was 238 °C.
The figure for `Cn1cncc1C(O)(c1ccc([N+](=O)[O-])cc1)c1ccc2c(c1)c(-c1cccc(Cl)c1)cc(=O)n2C` (racemic) [Example B4, (±)-4-(3-chlorophenyl)-6-[hydroxy(1-methyl-1H-imidazol-5-yl)(4-nitrophenyl)methyl]-1-methyl-2(1H)-quinolinone] is 230 °C; for `Cl.Cn1cncc1C(O)(c1ccc(C=O)cc1)c1ccc2[nH]c(=O)cc(-c3cccc(Cl)c3)c2c1` (racemic) it is above 260 °C.
Turning to `Cn1cncc1C(O)(c1ccc(C=O)cc1)c1ccc2c(c1)c(-c1cccc(Cl)c1)cc(=O)n2C` (racemic) [Example B6, (±)-4-[[4-(3-chlorophenyl)-1,2-dihydro-1-methyl-2-oxo-6-quinolinyl]hydroxy(1-methyl-1H-imidazol-5-yl)methyl]benzaldehyde], the melting point is 208 °C.
Regarding `Cn1cnnc1C(c1ccc(I)cc1)c1ccc2c(c1)c(-c1cccc(Cl)c1)nc1nnnn12` (centres unmarked) [Example B26b, tetrazolo[1,5-a]quinazoline, 5-(3-chlorophenyl)-7-[(4-iodophenyl)(4methyl-4H-1,2,4-triazol-3-yl)methyl]-], the melting point was determined as 150 °C.
